From ChEMBL document CHEMBL1135926, “Structure-based design of novel potent nonpeptide thrombin inhibitors” (J Med Chem, 2002) come the findings set out here.

Sequence of Plasminogen (P00747 97-580 limits assumed): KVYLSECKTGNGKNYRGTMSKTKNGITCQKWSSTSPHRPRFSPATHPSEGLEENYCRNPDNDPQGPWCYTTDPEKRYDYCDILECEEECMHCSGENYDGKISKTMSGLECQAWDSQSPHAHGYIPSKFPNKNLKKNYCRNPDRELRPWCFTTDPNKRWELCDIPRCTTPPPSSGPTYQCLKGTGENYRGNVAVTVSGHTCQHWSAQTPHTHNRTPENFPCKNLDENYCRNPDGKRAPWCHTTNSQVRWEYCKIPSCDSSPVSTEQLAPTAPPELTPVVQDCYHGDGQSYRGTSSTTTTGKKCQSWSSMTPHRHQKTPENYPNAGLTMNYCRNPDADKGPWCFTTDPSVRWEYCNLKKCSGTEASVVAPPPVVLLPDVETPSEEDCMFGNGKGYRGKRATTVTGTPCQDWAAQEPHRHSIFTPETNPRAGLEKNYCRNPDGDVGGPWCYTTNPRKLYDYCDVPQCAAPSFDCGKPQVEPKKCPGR
Sequence of Plasminogen (P00747 581-810 limits assumed): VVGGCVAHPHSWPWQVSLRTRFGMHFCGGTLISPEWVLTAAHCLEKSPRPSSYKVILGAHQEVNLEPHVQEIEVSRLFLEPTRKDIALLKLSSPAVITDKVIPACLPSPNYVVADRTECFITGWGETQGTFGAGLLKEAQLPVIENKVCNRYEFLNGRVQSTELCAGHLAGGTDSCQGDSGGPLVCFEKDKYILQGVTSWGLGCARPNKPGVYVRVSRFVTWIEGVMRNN
Sequence of Tissue-type plasminogen activator (P00750 whole entry): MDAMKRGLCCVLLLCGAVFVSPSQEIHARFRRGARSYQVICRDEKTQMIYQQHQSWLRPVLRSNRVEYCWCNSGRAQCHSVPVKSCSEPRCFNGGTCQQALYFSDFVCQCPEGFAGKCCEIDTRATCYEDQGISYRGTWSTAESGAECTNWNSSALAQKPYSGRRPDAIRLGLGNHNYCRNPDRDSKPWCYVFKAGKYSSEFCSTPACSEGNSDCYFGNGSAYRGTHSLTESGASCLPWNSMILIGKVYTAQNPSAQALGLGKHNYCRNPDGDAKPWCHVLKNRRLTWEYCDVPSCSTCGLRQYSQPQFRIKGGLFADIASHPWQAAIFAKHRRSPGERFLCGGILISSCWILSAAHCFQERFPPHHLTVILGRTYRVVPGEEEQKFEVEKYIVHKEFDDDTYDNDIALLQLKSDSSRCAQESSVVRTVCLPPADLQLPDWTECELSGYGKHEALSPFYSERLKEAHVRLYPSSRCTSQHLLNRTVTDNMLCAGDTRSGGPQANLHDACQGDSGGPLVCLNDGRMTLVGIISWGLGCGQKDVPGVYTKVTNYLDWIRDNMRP

One assay concerns the target Plasminogen (Homo sapiens, UniProt P00747). As to the kind of experiment: Inhibitory constant (Ki) was determined against human plasmin.
As to `Cn1c(CNc2ccc(C(=N)N)cc2)nc2cc(C(=O)N(CCC(=O)O)c3ccccn3)ccc21` [DABIGATRAN], the Ki turned out to be 1.69 µM.

The target of a further assay is Vitamin K-dependent protein C (Homo sapiens, UniProt P04070). As to the kind of experiment: Inhibitory constant (Ki) was determined against human Activated protein C.
Sequence of Vitamin K-dependent protein C (P04070 43-197 limits assumed): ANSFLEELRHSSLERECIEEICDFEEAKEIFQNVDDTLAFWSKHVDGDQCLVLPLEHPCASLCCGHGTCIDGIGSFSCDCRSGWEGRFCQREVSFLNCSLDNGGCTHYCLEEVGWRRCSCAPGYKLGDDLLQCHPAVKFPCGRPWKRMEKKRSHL
Sequence of Vitamin K-dependent protein C (P04070 212-461 limits assumed): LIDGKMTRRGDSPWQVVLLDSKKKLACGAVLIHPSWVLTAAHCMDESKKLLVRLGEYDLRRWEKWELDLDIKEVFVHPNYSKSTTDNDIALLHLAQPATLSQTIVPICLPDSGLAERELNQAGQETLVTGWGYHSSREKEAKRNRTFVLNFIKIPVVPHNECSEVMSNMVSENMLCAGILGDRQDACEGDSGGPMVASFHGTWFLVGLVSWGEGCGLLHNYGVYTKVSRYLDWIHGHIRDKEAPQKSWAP
The compound `Cn1c(CNc2ccc(C(=N)N)cc2)nc2cc(C(=O)N(CCC(=O)O)c3ccccn3)ccc21` [DABIGATRAN] returned a Ki of 20.9 µM.

The species entered for the next assay is Homo sapiens. Put plainly: Effective dose was determined against human plasma using PTT reagent. The assay is classed as functional.
Consider `Cn1c(CNc2ccc(C(=N)N)cc2)nc2cc(C(=O)N(CCC(=O)O)c3ccccn3)ccc21` [DABIGATRAN], for which the ED2 is 0.23 µM.

Another assay concerns the target Prothrombin (Homo sapiens, UniProt P00734). As to the kind of experiment: Inhibition of human thrombin by chromogenic assay.
In turn, `Cn1c(CNc2ccc(C(=N)N)cc2)nc2cc(N(CC(=O)O)S(=O)(=O)c3cccc4cccnc34)ccc21` returned an IC50 of 0.011 µM. In turn, `Cn1c(Cc2ccc(C(=N)N)cc2)nc2cc(NS(=O)(=O)c3ccc4ccccc4c3)ccc21` registered a 50% inhibitory concentration (IC50) of 24 µM. As for `Cn1c(CCc2ccc(C(=N)N)cc2)nc2cc(C(=O)N(CC(=O)O)c3ccccc3)ccc21`, the IC50 was 0.054 µM. Still for that read-out and setting: in the case of `Cn1c(Cc2ccc(C(=N)N)cc2)nc2cc(N(CCCC(=O)O)S(=O)(=O)c3cccc4cccnc34)ccc21` it was 0.13 µM. On the same count and under the same terms, in the case of `Cn1c(Cc2ccc(C(=N)N)cc2)nc2cc(NS(=O)(=O)c3cccnc3)ccc21` it was 1.6 µM; in that of `Cn1c(Cc2ccc(C(=N)N)cc2)nc2cc(NS(=O)(=O)c3cccc4ccccc34)ccc21`, 0.6 µM; in that of `COc1ccc(OC)c(S(=O)(=O)Nc2ccc3c(c2)nc(Cc2ccc(C(=N)N)cc2)n3C)c1`, 1.8 µM.

For the compound `Cn1c(CCc2ccc(C(=N)N)cc2)nc2cc(N(CC(=O)O)S(=O)(=O)c3cccc4cccnc34)ccc21`, the IC50 turned out to be 0.032 µM. `Cn1c(Cc2ccc(C(=N)N)cc2)nc2cc(NS(=O)(=O)c3cccc4cccnc34)ccc21` came in with an IC50 of 0.26 µM. Same read-out and setting: in the case of `Cn1c(Cc2ccc(C(=N)N)cc2)nc2cc(N(CC(=O)O)S(=O)(=O)c3cccc4cccnc34)ccc21` it was 0.12 µM. In turn, `CCCn1c(Cc2ccc(C(=N)N)cc2)nc2cc(NS(=O)(=O)c3ccccc3)ccc21` yielded an IC50 of 4 µM.

The compound `Cn1c(CNc2ccc(C(=N)N)cc2)nc2cc(C(=O)N(CCC(=O)O)c3ccccc3)ccc21` yielded an IC50 of 0.0054 µM. Take `Cn1c(Cc2ccc(C(=N)N)cc2)nc2cc(NS(=O)(=O)c3cc(C(F)(F)F)cc(C(F)(F)F)c3)ccc21`: the IC50 is over 100 µM. Same read-out and setting: under `CCn1c(Cc2ccc(C(=N)N)cc2)nc2cc(NS(=O)(=O)c3ccccc3)ccc21` stands 2.4 µM; under `Cn1c(CNc2ccc(C(=N)N)cc2)nc2cc(C(=O)N(CC(=O)O)c3ccccc3)ccc21`, 0.01 µM; under `N=C(N)c1ccc(Cc2nc3cc(NS(=O)(=O)c4ccccc4)ccc3[nH]2)cc1`, 19 µM. Consider `Cn1c(COc2ccc(C(=N)N)cc2)nc2cc(C(=O)N(CC(=O)O)c3ccccc3)ccc21`, for which it took 0.33 µM to reach half-maximal inhibition (IC50).

Turning to `Cn1c(CNc2ccc(C(=N)N)cc2)nc2cc(C(=O)N(CCCC(=O)O)c3ccccc3)ccc21`, the midpoint of inhibition, the IC50, lay at 0.01 µM. On to `CN(c1ccc2c(c1)nc(Cc1ccc(C(=N)N)cc1)n2C)S(=O)(=O)c1ccccc1`, for which the IC50 was 1.3 µM.

Take `Cn1c(Cc2ccc(C(=N)N)cc2)nc2cc(NS(=O)(=O)c3cccc4cnccc34)ccc21`: the IC50 is 0.51 µM. The same measure, in the same setting: under `Cn1c(COc2ccc(C(=N)N)cc2)nc2cc(N(CC(=O)O)S(=O)(=O)c3cccc4cccnc34)ccc21` stands 0.058 µM.

Another assay addresses Tissue-type plasminogen activator (Homo sapiens, UniProt P00750). Put plainly: Inhibitory constant (Ki) was determined against human Tissue plasminogen activator (tissue plasminogen activator).
With `Cn1c(CNc2ccc(C(=N)N)cc2)nc2cc(C(=O)N(CCC(=O)O)c3ccccn3)ccc21` [DABIGATRAN], the affinity, expressed as Ki, was 45.4 µM.

Another assay concerns the target Trypsin (Homo sapiens, UniProt P07477+P07478+P35030). As to the kind of experiment: Inhibitory constant (Ki) was determined against human trypsin. The assay is classed as protein assay.
`Cn1c(CNc2ccc(C(=N)N)cc2)nc2cc(C(=O)N(CCC(=O)O)c3ccccn3)ccc21` [DABIGATRAN]: the Ki came out at 0.0503 µM.
